Results from US5502061A, “Peptidyl substituted benzamides and naphthamies” (Eli Lilly and Company, priority 1994, dated 1996).

molecular target: T1, HIV-1 protease (Human immunodeficiency virus type 1 group M subtype B, UniProt P04585); experiment: Fluorescence HIV-1 Protease Inhibitor Assay; type: biochemical; details: concentration giving 25% inhibition; the concentration of the compound was not increased above the stated concentration; normalized to positive control
T1 construct: made in house; host or cells: E. coli K12 L507/pHP10D (NRRL B-18560)
Experimental: E. Fluorescence HIV-1 Protease Inhibitor Assay
The following buffers and solutions are used in the Fluorescence HIV-1 Protease Inhibitor Assay:
To each well of a round bottom, 96-well plate is added 20 μL of the Enzyme Solution followed by 10 μL of the compound to be evaluated in a 20% aqueous dimethylsulfoxide solution. Purified HIV-1 protease was obtained as described above. […] The solutions are then incubated for 16 hours at room temperature and then each well is diluted with 150 μL of MES-ALB buffer.
To each well of a second round bottom, 96-well Pandex plate is added 25 uL of the Avidin Coated Beads Solution. Then, to each well is added 25 μL of the diluted incubation solutions, prepared above. The solutions are mixed thoroughly and the plates are loaded into a Pandex® machine, washed, evacuated and read. Sample detection was performed by excitation at 485 nm, reading the resulting epifluorescence at 535 nm.

Row | Compound | Fluorescence Assay IC25
1 | CC(C)(C)NC(=O)c1ccccc1CC(O)C(Cc1ccccc1)NC(=O)C(CC(N)=O)NC(=O)C(NC(=O)OC(C)(C)C)c1ccccc1 (stereo not drawn) [Example 17, 2R-(2R*, 3S*, 6S*, 9R*)!-N-t-butyl-2-2-hydroxy-3-phenylmethyl-4,7-diaza 5,8-dioxo-6-(carbamoylmethyl)-9-N(t-butoxycarbonyl)amino-9-phenyl!nonyl benzamide] | 100 ng/mL

same assay, conditions: concentration giving 43% inhibition; the concentration of the compound was not increased above the stated concentration; normalized to positive control

Row | Compound | Fluorescence Assay IC43
2 | CC(C)(C)NC(=O)c1ccccc1CC(O)C(Cc1ccccc1)NC(=O)C(N)CC(N)=O (stereo not drawn) [Example 5B, 2R-(2R*, 3S*, 6S*)!-N-t-Butyl-2-2-hydroxy-3-phenylmethyl-4-aza-5-oxo-6-amino-7-carbamoyl!heptyl benzamide] | 1000 ng/mL

same assay, conditions: purified HIV-1 protease, biotin/FITC-labelled peptide substrate, Pandex read-out; all values normalized to the positive control (= 1.0)

Row | Compound | Fluorescence Assay IC50
3 | 2R- (2R*, 3S*, 6S*, 9R*)!-N-t-Butyl-2- 2-hydroxy-3-phenylmethyl-4,7-diaza -2,8-dioxo-6-(1-methylethyl)-9-amino-10-naphth-1-yl!benzamide [Example 4] | 2.48 ng/mL
4 | 2R-(3R*,3S*,6S*,9R*)!-N-t-Butyl-2- 2-hydroxy-3-phenylmethyl-4,7-diaza -5,8,dioxo-6-(carbamoylmethyl)-9-amino-10-naphth-1-yl!decyl benzamide [Example 8] | 2.28 ng/mL
5 | CC(C)C(NC(=O)C(Cc1cccc2ccccc12)NC(=O)OC(C)(C)C)C(=O)NC(Cc1ccccc1)C(O)Cc1ccccc1C(=O)NC(C)(C)C (stereo not drawn) [Example 1C, 2R-(2R*, 3S*, 6S*, 9S*)!-N-t-Butyl-2-2-hydroxy-3-phenylmethyl-4,7-diaza-5,8-dioxo-6-(1-methylethyl)-9-N(t-butoxycarbonyl)amino-10-naphth-1-yl!decyl benzamide] | 1.44 ng/mL
6 | CC(C)C(NC(=O)C(Cc1cccc2ccccc12)NC(=O)OC(C)(C)C)C(=O)NC(Cc1ccccc1)C(O)Cc1ccccc1C(=O)NC(C)(C)C (stereo not drawn) [Example 2, 2R-(2R*,3S*,6S*,9R*)!-N-t-Butyl-2-2-hydroxy-3-phenylmethyl-4,7-diaza-5,8-dioxo-6-(1-methylethyl)-9-N(t-butoxycarbonyl)amino-10-naphth-1-yl!decyl benzamide] | 3.13 ng/mL
7 | CC(C)C(NC(=O)C(N)Cc1cccc2ccccc12)C(=O)NC(Cc1ccccc1)C(O)Cc1ccccc1C(=O)NC(C)(C)C (stereo not drawn) [Example 3, 2R-(2R*, 3S*, 6S*, 9S*)!-N-t-Butyl-2-2-hydroxy-3-phenylmethyl-5,8-dioxo-6-(1-methylethyl)-9-amino-10-naphth-1-yl!decyl benzamide] | 0.48 ng/mL
8 | CC(C)(C)NC(=O)c1ccccc1CC(O)C(Cc1ccccc1)NC(=O)C(CC(N)=O)NC(=O)C(Cc1cccc2ccccc12)NC(=O)OC(C)(C)C (stereo not drawn) [Example 5C, 2R-(2R*,3S*, 6S*,9R*)!-N-t-Butyl-2-2-hydroxy-3-phenylmethyl-4,7-diaza-5,8-dioxo-6-(carbamoylmethyl)-9-N(t-butoxycarbonyl))amino-10-naphth-1-yl!decyl benzamide] | 0.53 ng/mL
9 | CC(C)(C)NC(=O)c1ccccc1CC(O)C(Cc1ccccc1)NC(=O)C(CC(N)=O)NC(=O)C(Cc1cccc2ccccc12)NC(=O)OC(C)(C)C (stereo not drawn) [Example 6, 2R-(2R*,3S*,6S*,9S*)!-N-t-Butyl-2-2-hydroxy-3-phenylmethyl-4,7-diaza-5,8-dioxo-6-(carbamoylmethyl)-9-N(t-butoxycarbonyl)amino-10-naphth-1-yl!decyl benzamide] | 2.4 ng/mL
10 | CC(C)(C)NC(=O)c1ccccc1CC(O)C(Cc1ccccc1)NC(=O)C(CC(N)=O)NC(=O)C(N)Cc1cccc2ccccc12 (stereo not drawn) [Example 7, 2R-(2R*, 3S*, 6S*, 9S*)!-N-t-Butyl-2-2-hydroxy-3-phenylmethyl-4,7-diaza-5,8-dioxo-6-(carbamoylmethyl)-9-amino-10-naphth-1-yl!decyl benzamide] | 0.95 ng/mL
11 | CC(C)(C)NC(=O)c1ccccc1CC(O)C(Cc1ccccc1)NC(=O)C(CC(N)=O)NC(=O)C(Cc1ccccc1)NC(=O)OC(C)(C)C (stereo not drawn) [Example 9, 2R-(2R*, 3S*, 6S*, 9S*)!-N-t-Butyl-2-2-hydroxy-3-phenylmethyl-4,7-diaza-5,8-dioxo-6-(carbamoylmethyl)-9-N(t-butoxycarbonyl)amino-10-phenyl!decyl benzamide] | 1.76 ng/mL
12 | CC(C)(C)NC(=O)c1ccccc1CC(O)C(Cc1ccccc1)NC(=O)C(CC(N)=O)NC(=O)C(Cc1ccccc1)NC(=O)OC(C)(C)C (stereo not drawn) [Example 10, 2R-(2R*, 3S*, 6S*, 9R* )!-N-t-Butyl-2-2-hydroxy-3-phenylmethyl-4,7-diaza-5,8-dioxo-6-(carbamoylmethyl)-9-N(t-butoxycarbonyl)amino-10-phenyl!decyl benzamide] | 1.67 ng/mL
13 | CC(C)(C)NC(=O)c1ccccc1CC(O)C(Cc1ccccc1)NC(=O)C(Cc1c[nH]cn1)NC(=O)C(Cc1cccc2ccccc12)NC(=O)OC(C)(C)C (stereo not drawn) [Example 11C, 2R-(2R*,3S*,6S*,9S*)!-N-t-Butyl-2-2-hydroxy-3-phenylmethyl-4,7-diaza-5,8-dioxo-6-(imidazol-4-ylmethyl)-9-N(t-butoxycarbonyl)amino-10-naphth-1-yl!decyl benzamide] | 7.78 ng/mL
14 | CC(C)(C)NC(=O)c1ccccc1CC(O)C(Cc1ccccc1)NC(=O)C(Cc1c[nH]cn1)NC(=O)C(Cc1cccc2ccccc12)NC(=O)OC(C)(C)C (stereo not drawn) [Example 12, 2R-(2R*,3S*,6S*,9R*)!-N-t-Butyl-2-2-hydroxy-3-phenylmethyl-4,7-diaza-5,8-dioxo-6-(imidazol-4-ylmethyl)-9-N(t-butoxycarbonyl)amino-10-naphth-1-yl!decyl benzamide] | 1.6 ng/mL
15 | CC(C)(C)NC(=O)c1ccccc1CC(O)C(Cc1ccccc1)NC(=O)C(CC(N)=O)NC(=O)C(Cc1cccc2ccccc12)NC(=O)OC(C)(C)C (stereo not drawn) [Example 13, 2R-(2R*,3S*, 6R*,9S*)!-N-t-Butyl-2-2-hydroxy-3-phenylmethyl-4,7-diaza-5,8-dioxo-6-(carbamoylmethyl)-9-N(t-butoxycarbonyl)amino-10-naphth-1-yl!decyl benzamide] | > 10000 ng/mL
16 | CC(C)(C)NC(=O)c1ccccc1CC(O)C(Cc1ccccc1)NC(=O)C(CC(N)=O)NC(=O)C(Cc1c[nH]c2ccccc12)NC(=O)OC(C)(C)C (stereo not drawn) [Example 14, 2R-(2R*, 3S*, 6S*, 9S*)!-N-t-Butyl-2-2-hydroxy-3-phenylmethyl-4,7-diaza-5,8-dioxo-6-(carbamoylmethyl)-9-N(t-butoxycarbonyl)amino-10-indol-3-yl!decyl benzamide] | 0.93 ng/mL
17 | CC(C)(C)NC(=O)c1cccc(CC(O)C(Cc2ccccc2)NC(=O)C(CC(N)=O)NC(=O)C(Cc2c[nH]c3ccccc23)NC(=O)OC(C)(C)C)c1 (stereo not drawn) [Example 15, 2R-(2R*, 3S*, 6S*, 9R*)!-N-t-Butyl-3-2-hydroxy-3-phenylmethyl-4,7-diaza-5,8-dioxo-6-(carbamoylmethyl)-9-N(t-butoxycarbonyl)amino-10-indol-3-yl!decyl benzamide] | 1.05 ng/mL
18 | CC(C)(C)NC(=O)c1ccccc1CC(O)C(Cc1ccccc1)NC(=O)C(CC(N)=O)NC(=O)C(NC(=O)OC(C)(C)C)c1ccccc1 (stereo not drawn) [Example 16, 2R-(2R*, 3S*, 6S*, 9S*)!-N-t-Butyl-2-2-hydroxy-3-phenylmethyl-4,7-diaza-5,8-dioxo-6-(carbamoylmethyl)-9-N(t-butoxycarbonyl)amino-9-phenyl!nonyl benzamide] | 106 ng/mL
